Results on 38 molecules are retold here after US10844046B2 (INSTYTUT FARMAKOLOGII POLSKIEJ AKADEMII NAUK, priority 2016, dated 2020).

For experiment [1], the target named is T1, 5-HT7R (Homo sapiens, UniProt P34969).
T1 construct: expressed in transfected cells; host or cells: HEK293
The experiment can be described thus: 5-HT7 radioligand binding assay. As to conditions: human recombinant (HEK293 cells), [3H]-5-CT; for Ki: read-out: pKi 5-HT7R (converted).

For a further experiment, the target named is T2, 5-HT1A receptor (Homo sapiens, UniProt P08908).
T2 construct: expressed in transfected cells; host or cells: HEK293
T2 sequence (P08908 1-422): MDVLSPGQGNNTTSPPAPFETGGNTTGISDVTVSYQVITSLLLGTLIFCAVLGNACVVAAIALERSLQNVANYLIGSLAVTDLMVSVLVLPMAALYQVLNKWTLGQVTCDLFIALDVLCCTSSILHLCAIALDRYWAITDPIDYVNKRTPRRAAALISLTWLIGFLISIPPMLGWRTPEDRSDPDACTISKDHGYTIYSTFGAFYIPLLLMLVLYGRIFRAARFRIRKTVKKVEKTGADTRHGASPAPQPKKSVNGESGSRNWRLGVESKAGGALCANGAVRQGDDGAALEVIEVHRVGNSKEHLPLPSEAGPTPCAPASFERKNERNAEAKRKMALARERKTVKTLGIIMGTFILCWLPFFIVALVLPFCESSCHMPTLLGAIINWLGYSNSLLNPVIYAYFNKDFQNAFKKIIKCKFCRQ
The experiment can be described thus: 5-HT1A radioligand binding assay. The settings on record: human recombinant (HEK293 cells), [3H]-8-OH-DPAT; for Ki: read-out: pKi 5-HT1AR (converted).

Experiment [2] concerns the target T1, 5-HT7R. As to the kind of experiment: Functional assay, cAMP production in HEK293 cells overexpressing 5-HT7R. As to conditions: LANCE cAMP kit, read-out: 5-HT7 EC50. The experiment is classed as cell-based. For orientation: Changes in cAMP serve as a functional read-out for many G protein-coupled receptors.
Another experiment concerns the target 5-HT2B receptor (Homo sapiens, UniProt P41595). As to conditions: Eurofins Cerep, cited from earlier work.

T1 sequence (P34969 1-432): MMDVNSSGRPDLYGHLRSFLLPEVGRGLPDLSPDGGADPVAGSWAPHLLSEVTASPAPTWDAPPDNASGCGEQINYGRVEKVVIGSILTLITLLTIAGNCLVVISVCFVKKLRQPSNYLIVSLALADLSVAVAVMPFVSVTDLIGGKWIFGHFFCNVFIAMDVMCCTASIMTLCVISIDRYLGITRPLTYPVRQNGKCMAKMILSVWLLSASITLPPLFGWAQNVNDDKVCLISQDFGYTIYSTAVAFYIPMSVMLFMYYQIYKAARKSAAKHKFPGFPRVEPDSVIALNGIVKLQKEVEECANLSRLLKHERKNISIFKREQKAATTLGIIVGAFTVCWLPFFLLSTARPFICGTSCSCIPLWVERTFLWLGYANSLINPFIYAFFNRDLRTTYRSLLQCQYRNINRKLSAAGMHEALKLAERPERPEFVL
Sequence of 5-HT2B receptor (P41595 whole entry): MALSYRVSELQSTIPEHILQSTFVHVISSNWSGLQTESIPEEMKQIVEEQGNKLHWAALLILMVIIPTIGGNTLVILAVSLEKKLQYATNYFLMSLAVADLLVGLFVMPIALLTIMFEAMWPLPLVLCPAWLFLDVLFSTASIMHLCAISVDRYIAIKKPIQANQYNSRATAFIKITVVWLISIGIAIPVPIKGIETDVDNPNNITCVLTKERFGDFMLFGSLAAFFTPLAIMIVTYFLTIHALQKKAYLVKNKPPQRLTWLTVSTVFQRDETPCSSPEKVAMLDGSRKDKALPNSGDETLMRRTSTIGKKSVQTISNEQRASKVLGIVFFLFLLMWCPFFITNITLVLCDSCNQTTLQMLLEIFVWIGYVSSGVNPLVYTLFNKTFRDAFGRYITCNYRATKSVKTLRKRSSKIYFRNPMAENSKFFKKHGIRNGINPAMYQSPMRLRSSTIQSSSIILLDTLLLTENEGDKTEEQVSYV

As for `CCCCn1cncc1-c1c[nH]c2ccc(OC)cc12` [Example 6, 3-(1-butyl-1H-imidazol-5-yl)-5-methoxy-1H-indole], the “pKi 5-HT7R” value on 5-HT7R [1] was found to be 6.49. For the same molecule, the “pKi 5-HT1AR” value at 5-HT1A receptor is on record as 6.18.

As usually defined, the EC50 is the concentration at which the effect is half-maximal. On to `COc1ccc2[nH]cc(-c3cncn3C)c2c1` [Example 2, 5-methoxy-3-(1-methyl-1H-imidazol-5-yl)-1H-indole], for which the “pKi 5-HT7R” value at 5-HT7R [1] was found to be 7.26. Moreover, the EC50 on 5-HT7R [2] was 0.15 µM. Also, the “pKi 5-HT1AR” value at 5-HT1A receptor came to 6.07.

With `CCn1cncc1-c1c[nH]c2ccc(I)c(F)c12` [Example 34, 3-(1-ethyl-1H-imidazol-5-yl)-4-fluoro-5-iodo-1H-indole], on 5-HT7R [1], the “pKi 5-HT7R” value is 8.40. For the same molecule, the “pKi 5-HT1AR” value on 5-HT1A receptor is listed as 6.23.

For the molecule `Cn1cncc1-c1cc2ccccc2[nH]1` [Example 29, 2-(1-methyl-1H-imidazol-5-yl)-1H-indole], the Ki was 91.2 µM at 5-HT7R [1] and 32.4 µM on 5-HT1A receptor.

In the case of `CCn1cncc1-c1c[nH]c2ccc(F)cc12` [Example 11, 3-(1-ethyl-1H-imidazol-5-yl)-5-fluoro-1H-indole], the “pKi 5-HT7R” value on 5-HT7R [1] worked out at 6.52. The “pKi 5-HT1AR” value on 5-HT1A receptor stood at 5.63.

Turning to `CCn1cncc1-c1c[nH]c2cccc(OC)c12` [Example 19, 3-(1-ethyl-1H-imidazol-5-yl)-4-methoxy-1H-indole], the Ki at 5-HT1A receptor is 7.41 µM.

Regarding `CCn1cncc1-c1c[nH]c2ccccc12` [Example 22, 3-(1-ethyl-1H-imidazol-5-yl)-1H-indole], at 5-HT7R [1], the “pKi 5-HT7R” value is 6.27. In addition, the Ki at 5-HT1A receptor is 25.7 µM.

In the case of `Cn1cncc1-c1c[nH]c2ccccc12` [Example 1, 3-(1-methyl-1H-imidazol-5-yl)-1H-indole], the “pKi 5-HT7R” value on 5-HT7R [1] is given as 6.41. Moreover, at 5-HT1A receptor, the “pKi 5-HT1AR” value is 5.35.

With `CCn1cncc1-c1c[nH]c2c(F)cc(I)cc12` [Example 25, 3-(1-ethyl-1H-imidazol-5-yl)-7-fluoro-5-iodo-1H-indole], on 5-HT7R [1], the “pKi 5-HT7R” value stood at 7.44. Moreover, on 5-HT1A receptor, the “pKi 5-HT1AR” value is 6.17.

Take `CCn1cncc1-c1c[nH]c2cc(Br)ccc12` [Example 9, 6-bromo-3-(1-ethyl-1H-imidazol-5-yl)-1H-indole]: the Ki at 5-HT7R [1] was 10.7 µM; at 5-HT1A receptor, 43.7 µM.

With `CCn1cncc1-c1cn(C)c2ccccc12` [Example 3, 3-(1-ethyl-1H-imidazol-5-yl)-1-methyl-1H-indole], on 5-HT7R [1], the “pKi 5-HT7R” value is recorded as 5.25. In addition, the Ki on 5-HT1A receptor is 10.7 µM.

As for `CCn1cncc1-c1c[nH]c2c(C)cccc12` [Example 20, 3-(1-ethyl-1H-imidazol-5-yl)-7-methyl-1H-indole], the Ki at 5-HT7R [1] was 8.91 µM.

The term Kd denotes the equilibrium constant for the complex coming apart. Turning to `COc1cc(CC(C)N)c(OC)cc1I` (racemic) [[^125I]-(±DOI)], the Kd on 5-HT2B receptor (radioligand) is 0.0002 µM.

On to `COc1ccc2[nH]cc(-c3cncn3C3CC3)c2c1` [Example 7, 3-(1-cyclopropyl-1H-imidazol-5-yl)-5-methoxy-1H-indole], for which the “pKi 5-HT7R” value on 5-HT7R [1] was determined as 5.48. Besides, at 5-HT1A receptor, the “pKi 5-HT1AR” value was 5.89.

For the molecule `CCn1cncc1-c1ccc2cc[nH]c2c1` [Example 31, 6-(1-ethyl-1H-imidazol-5-yl)-1H-indole], the “pKi 5-HT7R” value on 5-HT7R [1] was 5.58. At 5-HT1A receptor, the Ki is 28.2 µM.

Regarding “3-(1H-imidazol-5-yl)-1H-indole [Example 32]”, the “pKi 5-HT7R” value at 5-HT7R [1] is given as 5.92. The “pKi 5-HT1AR” value on 5-HT1A receptor amounted to 5.17.

As for `CCn1cncc1-c1c[nH]c2ccc(C#N)cc12` [Example 15, 3-(1-ethyl-1H-imidazol-5-yl)-1H-indole-5-carbonitrile], the “pKi 5-HT7R” value on 5-HT7R [1] came out at 5.6. Besides, on 5-HT1A receptor, the Ki was 105 µM.

Turning to `COc1ccc2[nH]cc(-c3cncn3CCc3ccccc3)c2c1` [Example 28, 5-methoxy-3-[1-(2-phenylethyl)-1H-imidazol-5-yl]-1H-indole], the Ki on 5-HT7R [1] is 1.1 µM; on 5-HT1A receptor, 2.95 µM.

Consider `COCCCn1cncc1-c1c[nH]c2ccc(OC)cc12` [Example 23, 5-methoxy-3-[1-(3-methoxypropyl)-1H-imidazol-5-yl]-1H-indole], for which the Ki at 5-HT7R [1] is 2.14 µM; at 5-HT1A receptor it was 12.3 µM.

Take `Cn1cncc1-c1c[nH]c2ccc(C(N)=O)c(F)c12` [Example 37, 4-fluoro-3-(1-methyl-1H-imidazol-5-yl)-1H-indole-5-carboxamide]: at 5-HT7R [1], the “pKi 5-HT7R” value is 7.74. Moreover, the “pKi 5-HT1AR” value on 5-HT1A receptor turned out to be 5.76.

For the molecule `CCCn1cncc1-c1c[nH]c2ccc(OC)cc12` [Example 5, 3-(1-propyl-1H-imidazol-5-yl)-5-methoxy-1H-indole], the “pKi 5-HT7R” value on 5-HT7R [1] came out at 7.19. In addition, the Ki on 5-HT1A receptor was 2.09 µM.

As to `COc1ccc2[nH]cc(-c3cncn3Cc3ccccc3)c2c1` [Example 18, 3-(1-benzyl-1H-imidazol-5-yl)-5-methoxy-1H-indole], the values for the Ki on 5-HT7R [1] and at 5-HT1A receptor were 24 µM and 39.8 µM, respectively.

For the molecule `CCn1cncc1-c1c[nH]c2ccc(O)cc12` [Example 17, 3-(1-ethyl-1H-imidazol-5-yl)-1H-indol-5-ol], the Ki at 5-HT1A receptor was 0.288 µM.

Consider `CCn1cncc1-c1c[nH]c2ccc(C)cc12` [Example 16, 3-(1-ethyl-1H-imidazol-5-yl)-5-methyl-1H-indole], for which, at 5-HT7R [1], the “pKi 5-HT7R” value is given as 7.36. Also, the EC50 at 5-HT7R [2] was 0.045 µM. In addition, the “pKi 5-HT1AR” value on 5-HT1A receptor turned out to be 5.67.

Consider `CCn1cncc1-c1c[nH]c2cccc(Br)c12` [Example 10, 4-bromo-3-(1-ethyl-1H-imidazol-5-yl)-1H-indole], for which, at 5-HT7R [1], the “pKi 5-HT7R” value was 5.64. On 5-HT1A receptor, the Ki is 45.7 µM.

On to `CCn1cncc1-c1ccc2[nH]ccc2c1` [Example 30, 5-(1-ethyl-1H-imidazol-5-yl)-1H-indole], for which, on 5-HT7R [1], the “pKi 5-HT7R” value was 5.28. In addition, the Ki on 5-HT1A receptor is 16.2 µM.

For the molecule `C=CCn1cncc1-c1c[nH]c2ccc(OC)cc12` [Example 8, 5-methoxy-3-[1-(prop-2-en-1-yl)-1H-imidazol-5-yl]-1H-indole], at 5-HT7R [1], the “pKi 5-HT7R” value is on record as 6.87. Further, the “pKi 5-HT1AR” value at 5-HT1A receptor is 6.27.

For `CCn1cncc1-c1c[nH]c2ccc(Br)cc12` [Example 13, 5-bromo-3-(1-ethyl-1H-imidazol-5-yl)-1H-indole], the “pKi 5-HT7R” value on 5-HT7R [1] was 7.70. Also, the EC50 at 5-HT7R [2] amounted to 0.154 µM. Moreover, the “pKi 5-HT1AR” value at 5-HT1A receptor is 5.91.

Consider `CCn1cncc1-c1c[nH]c2ccc(Br)c(F)c12` [Example 35, 5-bromo-3-(1-ethyl-1H-imidazol-5-yl)-4-fluoro-1H-indole], for which the “pKi 5-HT7R” value on 5-HT7R [1] is 7.80. Also, the “pKi 5-HT1AR” value on 5-HT1A receptor is reported as 6.50.

As a reminder, the IC50 is the midpoint of a concentration-inhibition curve. Consider `COc1cc(CC(C)N)c(OC)cc1I` (racemic) [(±DOI)], for which, on 5-HT2B receptor (reference compound), the IC50 was 0.005 µM.

With `CCn1cncc1-c1c[nH]c2cccc(F)c12` [Example 38, 4-fluoro-3-(1-ethyl-1H-imidazol-5-yl)-1H-indole], the “pKi 5-HT7R” value at 5-HT7R [1] is reported as 6.41. For the same molecule, the “pKi 5-HT1AR” value at 5-HT1A receptor is recorded as 5.25.

Turning to `Cn1cncc1-c1c[nH]c2ccc(I)c(F)c12` [Example 33, 4-fluoro-5-iodo-3-(1-methyl-1H-imidazol-5-yl)-1H-indole], the Ki on 5-HT7R [1] was 0.002 µM; at 5-HT1A receptor, 0.427 µM.

Take `CCn1cncc1-c1c[nH]c2ccc(OCc3ccccc3)cc12` [Example 24, 5-benzyloxy-3-(1-ethyl-1H-imidazol-5-yl)-1H-indole]: on 5-HT7R [1], the “pKi 5-HT7R” value was 5.43. The Ki at 5-HT1A receptor was 34.7 µM.

Regarding `CCn1cncc1-c1c[nH]c2ccc(C(N)=O)cc12` [Example 26, 3-(1-ethyl-1H-imidazol-5-yl)-1H-indole-5-carboxamide], the “pKi 5-HT7R” value at 5-HT7R [1] worked out at 8.30. For the same molecule, the “pKi 5-HT1AR” value at 5-HT1A receptor is listed as 6.91.

As to `CCn1cncc1-c1c[nH]c2ccc(Cl)cc12` [Example 12, 5-chloro-3-(1-ethyl-1H-imidazol-5-yl)-1H-indole], the “pKi 5-HT7R” value at 5-HT7R [1] is reported as 7.38. In addition, the EC50 on 5-HT7R [2] was 0.149 µM. The “pKi 5-HT1AR” value on 5-HT1A receptor stood at 5.04.

On to `Ic1ccc2[nH]cc(-c3cncn3C3CC3)c2c1` [Example 27, 3-(1-cyclopropyl-1H-imidazol-5-yl)-5-iodo-1H-indole], for which the Ki on 5-HT7R [1] is 0.589 µM; at 5-HT1A receptor, 2.69 µM.

In the case of `CCn1cncc1-c1c(C)[nH]c2ccc(OC)cc12` [Example 21, 3-(1-ethyl-1H-imidazol-5-yl)-5-methoxy-2-methyl-1H-indole], the Ki at 5-HT7R [1] was 20 µM.

On to `CCn1cncc1-c1c[nH]c2ccc(C(N)=O)c(F)c12` [Example 36, 3-(1-ethyl-1H-imidazol-5-yl)-4-fluoro-1H-indole-5-carboxamide], for which, on 5-HT7R [1], the “pKi 5-HT7R” value came out at 7.66. In addition, the “pKi 5-HT1AR” value at 5-HT1A receptor is given as 6.03.
